From patent US9664690B1, “Molecular diagnostic kits for evaluating stress” (The National Institute for Biotechnology in the Negev Ltd., priority 2013, dated 2017)

Tested on: PBMCs
Assay: GR antagonist block of MP immunosuppressive effects in anti-CD3 stimulated PBMCs (IFNg ELISA)
Format: cell-based, human
Conditions: plate-bound anti-CD3 48 hours, MP plus mifepristone
Method: Peripheral blood lymphocytes were stimulated in 96-well culture plate (2×10^5 cells/well) with plate bound anti-CD3 mAb (0.5 μg/ml), and cultured for 48 h at 37° C. The cultured supernatants were removed and stored at […]. Cytokine concentration in the supernatants were measured by ELISA using human cytokine kits.
Another approach to investigate the functionality of GR is by the examination of the responsiveness of immune cell subsets to the glucocorticoid antagonist, mifepristone. […] This indicates an impairment in GR signaling which contributes to steroid resistance, which could be tested in stressed and non-stressed individuals as described herein. Such an impairment could also optionally act as a biomarker for the stress diagnostic kit according to at least some embodiments thereof.
PBMCs were purified from young healthy-aged and AD subjects, stimulated by plate-bound anti-CD3 mAb (0.5 micro-g/ml) for 48 hours in the presence of MP or with both MP and GR antagonist, mifepristone. The cultured supernatants were examined for IFNg production by ELISA; the results are shown as percentage of the levels measured without MP.

With `CC#C[C@]1(O)CC[C@H]2[C@@H]3CCC4=CC(=O)CCC4=C3[C@@H](c3ccc(N(C)C)cc3)C[C@@]21C` [mifepristone] as the molecule, how does the “blocking of MP immunosuppressive effects (IFNg production)” value (PBMCs of aged and Alzheimer's disease (AD) subjects) read?
The value was “impaired”.

And the “blocking of MP immunosuppressive effects (IFNg production)” value (PBMCs of young subjects)?
Its value is “partially blocks”.
